Consider 22 molecules from US12083092B2, “Antiviral 1,3-di-oxo-indene compounds” (Novartis AG, priority 2020, dated 2024).

Data set [1] is described as follows: Cytotoxicity in mock-infected cells (MTT/MTS). Type of data set: cell-based. To be noted: human, read-out: CYTOTOX (EC50 μM). On the procedure:
In the assay, HeLa (human cervical cancer cells), MRC-5 (human fetal lung fibroblast cells), and RD cells (derived from human rhabdomyosarcoma) were employed. For comparison, ribavirin (Riv), Pleconaril (pleco), and BTA-798 (BTA) were used as controls. Reagents were dissolved at a concentration of 10-40 mg/ml in 100% dimethyl sulfoxide (DMSO). Water-soluble reagents were dissolved in PBS (−) solution and stored at −20° C. On the day of the experiment, they were used in 3 fold to 5 fold concentrations in such a manner that the concentration of dimethyl sulfoxide in each well was between 0.5% and 1%.
For HeLa cells, the drugs were measured for EC50 (50% maximal effective concentration), which is the concentration of a drug inducing a response halfway between the baseline and maximum, using an MTT assay. With regard to RD and MRC-5 cells, CPE was determined using FDA (Fluorescein diacetate) or MTT. In order to determine the effect of drug toxicity on efficacy results, at the time of inoculation with the virus, mock-infection was also included. A virus-free medium was added to a cell culture, which was then subjected to the same treatment as the virus-infected cells inoculated with the virus. That is, the medium was removed after one hour of incubation, and dilutions of drugs in the medium were added once more. Following incubation for 2-3 days, the cells were observed under a microscope and the drugs were determined for CC50 (50% cytotoxic concentration) at which 50% of the cells were killed, using an MTT assay in which counts of viable cells in mock-infected wells containing drugs were compared to those of viable cells in control wells containing no drugs. In an FDA hydrolysis assay, FDA was added to each well after removal of the medium, and incubated for 20-30 min before fluorescence intensity was measured using a spectrofluorometer to determine CPE in the same manner as in MTT.
That is, the survival rate (% survival) of mock-infected cells for cytotoxicity measurement was calculated using the Mathematical Formula 1 below: Cell Drug=Survival by [A (Drug)−A (Background solution)/A (Cell control)−(Background×100% Solution)]
While 100% cell survival means no cytotoxicity of the drug, the highest cytotoxicity is reflected by 0% cell survival. The 50% cytotoxic concentration was defined as the concentration required to reduce the cell number by 50%. This concentration of the drug is represented as CC50. Higher values mean lower cytotoxicity.
The % CPE value for measuring cytotoxicity of a drug was calculated by Mathematical Formula 4 below: % CPE=100×[OD (CC)−OD (Virus+Compound)/OD (CC)−OD (Blank)] In Mathematical Formulae 3 and 4 above, • OD (CC) represents the OD of the background cell culture that is neither induced by a virus nor treated by chemical, • OD (VC) represents the OD of the control cell culture that is induced by a virus but not treated by chemical, • OD (Virus+Compound) represents the OD of the cell culture infected by a virus that has been treated with a concentrated compound, • OD (Compound) represents the OD of the cell culture that has been treated with a concentrated compound only, and OD (Blank) represents the OD of the well to which only the cell culture has been added.
The effective concentration (EC50) represents the concentration of a drug at which 50% of cells are allowed to survive by CPE of an induced virus, and the cytotoxicity concentration (CC50) represents the concentration of a drug at which a compound has killed 50% of cells, and they were calculated by the logarithmic interpolation.

Another data set can be described thus: C15_C3 REP. The settings on record: human, C15 C3 REP (cell-based assay).
The test system of a further data set is HRV B14. The data set can be described thus: CPE inhibition assay, HRV B14. The settings on record: Human rhinovirus sp. Type of data set: cell-based.
Data set [2] relates to coxsackievirus B4 (Cox B4). The data set can be described thus: CPE inhibition assay, coxsackievirus B4. Type of data set: cell-based. The settings on record: Enterovirus B.
A further data set relates to HRV A16. The data set is described as follows: CPE inhibition assay, HRV A16. Type of data set: cell-based. The settings on record: Human rhinovirus sp., read-out: A16_CPE (EC50 μM).
The test system of a further data set is poliovirus 1 (PV1). The data set is described as follows: microbe, parasite or virus in culture. Type of data set: cell-based. To be noted: Enterovirus C, read-out: PV1 (EC50 μM).
The conditions of data set [3]: cited from earlier work.

What is called EC50 is the concentration needed to bring the measured effect to its halfway point. As to `CC(=O)NC12C(=O)c3c(N)cccc3C1(O)Oc1cc(C(F)(F)F)ccc12` (racemic) [Example 3, N-(1-amino-4b-hydroxy-10-oxo-7-(trifluoromethyl)-4b,10-dihydro-9bH-indeno[1,2-b]benzofuran-9b-yl)acetamide], the CC50 in data set [1] was not below 50 µM; in “C15_C3 REP”, 21.4 µM. The EC50 with HRV B14 was 0.019 µM; in data set [2], 0.00201 µM; with HRV A16, 50 µM.
In the same order, the values of `CC(=O)NC12C(=O)c3c(N)cccc3C1(O)Oc1cc(C3CC3)ccc12` (racemic) [Example 7, N-(1-amino-7-cyclopropyl-4b-hydroxy-10-oxo-4b,10-dihydro-9bH-indeno[1,2-b]benzofuran-9b-yl)acetamide] are not below 50 µM, 50 µM, 0.016 µM, 0.00168 µM and 14.7 µM.
Take `CC(=O)NC12C(=O)c3c(N)cccc3C1(O)Oc1cc(OC(F)(F)F)ccc12` (racemic) [Example 10, N-(1-amino-4b-hydroxy-10-oxo-7-(trifluoromethoxy)-4b,10-dihydro-9bH-indeno[1,2-b]benzofuran-9b-yl)acetamide]: the CC50 was not below 50 µM in data set [1] and 50 µM in “C15_C3 REP”. Further, the EC50 in the data set with HRV B14 was 0.056 µM; in data set [2], 0.00303 µM; with HRV A16 it was 39.8 µM; in the data set on poliovirus 1 (PV1), 0.335 µM.
`CC(=O)NC12C(=O)c3c(N)cccc3C1(O)Oc1cc(Cl)ccc12` (racemic) [Example 13, N-(1-amino-7-chloro-4b-hydroxy-10-oxo-4b,10-dihydro-9bH-indeno[1,2-b]benzofuran-9b-yl)acetamide]: the CC50 in data set [1] was not below 50 µM. The EC50 was determined as 0.00267 µM in data set [2] and 0.295 µM in the data set with poliovirus 1 (PV1).
Take `CC(=O)NC12C(=O)c3c(N)cccc3C1(O)Oc1cc(C)ccc12` (racemic) [Example 16, N-(1-amino-4b-hydroxy-7-methyl-10-oxo-4b,10-dihydro-9bH-indeno[1,2-b]benzofuran-9b-yl)acetamide]: the CC50 in data set [1] is not below 50 µM. For the same molecule, the half-maximal effective concentration (EC50) in the data set with HRV B14 came out at 0.076 µM; in data set [2], 0.00374 µM; with HRV A16, 50 µM.
Turning to `CC(=O)NC12C(=O)c3c(N)cccc3C1(O)Oc1ccc(C)cc12` (racemic) [Example 19, N-(1-amino-4b-hydroxy-8-methyl-10-oxo-4b,10-dihydro-9bH-indeno[1,2-b]benzofuran-9b-yl)acetamide], the CC50 in data set [1] is not below 50 µM; in the data set “C15_C3 REP”, 25 µM. Moreover, the EC50 in the data set with HRV B14 was 0.666 µM; in data set [2], 0.00871 µM; in the data set with HRV A16, 50 µM; in the data set with poliovirus 1 (PV1) it was 3.24 µM.
With `CC(=O)N[C@]12C(=O)c3c(N)cccc3[C@@]1(O)Oc1cc(C(C)C)ccc12` (single isomer, unassigned) [Example 1], the figures for the CC50 (in data set [1]; in “C15_C3 REP”) were not below 50 µM and 35.1 µM, respectively. Further, the EC50 with HRV B14 was found to be 0.016 µM; in data set [2], 0.00061 µM; in the data set with HRV A16, 1.89 µM; in the data set with poliovirus 1 (PV1) it was 0.015 µM.
For `CC(=O)N[C@]12C(=O)c3c(N)cccc3[C@@]1(O)Oc1cc(C(F)(F)F)ccc12` (single isomer, unassigned) [Example 4], in data set [1], the CC50 was not below 50 µM. For the same molecule, the EC50 in data set [2] was determined as 0.00059 µM; in the data set with poliovirus 1 (PV1), 0.041 µM.
As to `CC(=O)N[C@@]12C(=O)c3c(N)cccc3[C@]1(O)Oc1cc(C(F)(F)F)ccc12` (single isomer, unassigned) [Example 5], the CC50 is not below 50 µM in data set [1] and 25 µM in “C15_C3 REP”. For the same molecule, the EC50 in data set [2] is 0.0442 µM; in the data set on poliovirus 1 (PV1) it was 9.22 µM.
For the molecule `CC(=O)N[C@]12C(=O)c3c(N)cccc3[C@@]1(O)Oc1cc(C3CC3)ccc12` (single isomer, unassigned) [Example 8], the CC50 in data set [1] is not below 50 µM; in the data set “C15_C3 REP”, 50 µM. For the same molecule, the concentration giving a half-maximal response (EC50) is 0.025 µM in the data set with HRV B14, 0.00093 µM in data set [2], 7.85 µM in the data set on HRV A16 and 0.028 µM in the data set with poliovirus 1 (PV1).
As for `CC(=O)N[C@@]12C(=O)c3c(N)cccc3[C@]1(O)Oc1cc(C3CC3)ccc12` (single isomer, unassigned) [Example 9], the CC50 in data set [1] was not below 50 µM; in the data set “C15_C3 REP” it was 50 µM. Besides, the results for the EC50 (with HRV B14; in data set [2]; in the data set with HRV A16) were 3.21 µM, 0.0862 µM and 50 µM, respectively.
Regarding `CC(=O)N[C@]12C(=O)c3c(N)cccc3[C@@]1(O)Oc1cc(OC(F)(F)F)ccc12` (single isomer, unassigned) [Example 11], in data set [1], the CC50 was not below 50 µM. This molecule gave an EC50 in data set [2] of 0.0011 µM.
As to `CC(=O)N[C@@]12C(=O)c3c(N)cccc3[C@]1(O)Oc1cc(OC(F)(F)F)ccc12` (single isomer, unassigned) [Example 12], the CC50 in data set [1] was not below 50 µM. Moreover, the concentration for a half-maximal effect (EC50) in the data set with HRV B14 is 0.016 µM; in data set [2] it was 0.188 µM; in the data set with HRV A16, 1.89 µM; in the data set with poliovirus 1 (PV1), 0.015 µM.
Take `CC(=O)N[C@]12C(=O)c3c(N)cccc3[C@@]1(O)Oc1cc(Cl)ccc12` (single isomer, unassigned) [Example 14]: in data set [1], the CC50 is not below 50 µM. For the same molecule, the EC50 in data set [2] came out at 0.00182 µM.
In the case of `CC(=O)N[C@@]12C(=O)c3c(N)cccc3[C@]1(O)Oc1cc(Cl)ccc12` (single isomer, unassigned) [Example 15], the CC50 in data set [1] is not below 50 µM; in the data set “C15_C3 REP”, 25 µM. In addition, it took 0.29 µM to reach a half-maximal effect in data set [2] (EC50).
As for `CC(=O)N[C@]12C(=O)c3c(N)cccc3[C@@]1(O)Oc1cc(C)ccc12` (single isomer, unassigned) [Example 17], in data set [1], the CC50 was not below 50 µM. The EC50 in data set [2] is 0.00174 µM; in the data set on poliovirus 1 (PV1), 0.11 µM.
For the molecule `CC(=O)N[C@@]12C(=O)c3c(N)cccc3[C@]1(O)Oc1cc(C)ccc12` (single isomer, unassigned) [Example 18], the CC50 is not below 50 µM in data set [1] and 25 µM in “C15_C3 REP”. The molecule further returned a concentration giving a half-maximal response (EC50) in data set [2] of 0.383 µM.
With `CC(=O)N[C@]12C(=O)c3c(N)cccc3[C@@]1(O)Oc1ccc(C)cc12` (single isomer, unassigned) [Example 20], the CC50 in data set [1] is not below 50 µM. Further, the concentration for a half-maximal effect (EC50) in data set [2] came out at 0.00443 µM; in the data set on poliovirus 1 (PV1), 2.17 µM.
For the molecule `COc1ccc2c(c1)O[C@]1(O)c3cccc(N)c3C(=O)[C@]21NC(C)=O` (single isomer, unassigned) [Example 23], in data set [1], the CC50 was not below 50 µM. Also, in data set [2], the EC50 is 0.00293 µM.
`CC(C)S(=O)(=O)n1c(N)nc2ccc(/C(=N/O)c3ccccc3)cc21` [Enviroxime]: the “therapeutic effects in clinical studies” value in data set [3] (clinical studies) was “insignificant or few therapeutic effects”. Besides, in data set [3] (in vivo), the “pharmacokinetics in clinical studies” value is “bad pharmacokinetics” and the “side effects in clinical studies” value is reported as “unwanted side effects”.
`CC(=O)N[C@]12C(=O)c3c(N)cccc3[C@@]1(O)Oc1cc(Br)ccc12` [Example 6, N-((4bR,9bR)-1-amino-7-bromo-4b-hydroxy-10-oxo-4b,10-dihydro-9bH-indeno[1,2-b]benzofuran-9b-yl)acetamide]: the CC50 was not below 50 µM in data set [1] and 50 µM in the data set “C15_C3 REP”. In addition, the 50% effective concentration (EC50) in the data set with HRV B14 is 0.049 µM; in data set [2], 0.00098 µM; with HRV A16 it was 43.3 µM.
Take `CC(=O)N(C)C12C(=O)c3c(N)cccc3C1(O)Oc1cc(C(F)(F)F)ccc12` (stereo not drawn) [Example 21, N-(1-amino-4b-hydroxy-10-oxo-7-(trifluoromethyl)-4b,10-dihydro-9bH-indeno[1,2-b]benzofuran-9b-yl)-N-methylacetamide]: the values for the CC50 (in data set [1]; in “C15_C3 REP”) were not below 50 µM and 25 µM, respectively. In data set [2], this molecule came in with an EC50 of 0.0032 µM.
